US20090105324A1, “IMIDAZOLE DERIVATIVES FOR USE AS EDG-1 ANTAGONISTS” (AstraZeneca AB, priority 2006, published 2009)

Target: T1, EDG-1/S1P1 receptor (Homo sapiens, UniProt P21453)
T1 construct: expressed in transfected cells; host or cells: U2OS (human osteogenic sarcoma), EDG-1 Transfluor U2OS WT Clone #37
Experiment: In Vitro Cell Based Receptor Activation Assay-Transfluor Assay
Settings: EDG-1 Transfluor U2OS WT Clone #37 cells; beta-arrestin GFP relocalization in presence of S1P
Excerpt: This cell-based assay was designed to assess the ability of small molecule antagonists to inhibit activation of the GPCR S1P1 in the presence of its cognate ligand S1P. The assay used technology initially developed by Norak Biosciences (Xsira Pharmaceutical) and presently owned by Molecular Devices. A human osteogenic sarcoma (U2OS) cell line overexpressing the EDG-1/S1P1) receptor as well as a beta-arrestin/green fluorescent protein (GFP) construct hereafter termed EDG-1 Transfluor U2OS WT Clone #37 was employed.
Using a high content screening approach (Cellomics Arrayscan), receptor activity was measured by assessment of the relocalization of beta-arrestin GFP in response to stimulation of EDG-1 by S1P. Specifically, EDG-1 Transfluor U2OS WT Clone #37 cells were plated at a density of 6250 cells in 40 uL medium per well in 384 well plastic bottomed inicrotiter plates (BD Falcon) and incubated overnight at 37° C./5% CO2. Prior to screening, compounds were dissolved in 100% dimethyl sulfoxide (DMSO) to a final stock concentration of 10 mM. Compounds were then serially diluted at 30× final concentration in EDG-1 Transfluor cell growth medium containing 30% DMSO using the Tecan Genesis instrument. […] Plates were then sealed and analysed on the Cellomics Arrayscan using the GPCR signalling algorithm. EC50 values were then calculated using IDBS ActivityBase software.

T1 sequence (P21453 whole entry): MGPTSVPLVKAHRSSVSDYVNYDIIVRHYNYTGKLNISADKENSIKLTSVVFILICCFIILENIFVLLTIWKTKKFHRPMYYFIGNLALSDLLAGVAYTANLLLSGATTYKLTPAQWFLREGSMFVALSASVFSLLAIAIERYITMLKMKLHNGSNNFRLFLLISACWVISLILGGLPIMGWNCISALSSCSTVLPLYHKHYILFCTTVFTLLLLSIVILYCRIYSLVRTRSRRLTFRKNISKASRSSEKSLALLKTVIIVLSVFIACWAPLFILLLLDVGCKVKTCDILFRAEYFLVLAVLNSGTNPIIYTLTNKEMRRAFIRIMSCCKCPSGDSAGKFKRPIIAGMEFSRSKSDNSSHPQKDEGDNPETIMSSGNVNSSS

For `Cc1cnc(C(Cc2ccccc2)NS(=O)(=O)c2ccc(Cl)cc2)n1C` (stereo not shown) [Example 1, 4-Chloro-N-[1-(1,5-dimethyl-1H-imidazol-2-yl)-2-phenylethyl]benzenesulfonamide], the EC50 was 2120 nM.
